Earlier results on four compounds are cited in patent publication US20100137247A1, “Anti-inflammatory compositions and methods” (Searete LLC, a limited liability corporation of the State …, priority 2008, published 2010).

SMILES strings stand for the structures.

For data set [1] the following is noted: 400 mg infused over one hour, single agent.
Data set [2] concerns proteasomal activity in cultured breast cancer cells. To be noted: disulfiram bound to copper.
Another data set deals with lethal septic shock. To be noted: mice.

As to `CCN(CC)CCCC(C)Nc1ccnc2cc(Cl)ccc12.O=P(O)(O)O.O=P(O)(O)O` (stereo not shown) [Chloroquine phosphate, 7-chloro-4-[[4-(diethylamino)-1-methylbutyl]amino]quinoline phosphate (1:2)], in data set [1], the tolerability of infusion result was “without complication”.
As for `CCN(CC)CCCC(C)Nc1ccnc2cc(Cl)ccc12` (stereo not shown) [Chloroquine], in the data set on Src family kinase, the “inhibition of CpG-induced Src family kinase activation or its dependent cellular responses” value is reported as “does not inhibit”.
As to `CCN(CC)C(=S)SSC(=S)N(CC)CC` [Disulfiram, 1-(diethylthiocarbamoyldisulfanyl)-N,N-diethyl-methanethioamide], the proteasomal activity result in data set [2] is “inhibits proteasomal activity”.
Take `Cl.Cl.Nc1ccccc1Oc1ccc2c(N)nsc2c1` [Example M62812, 3-amino-6-(2-aminophenoxy)-1,2-benzisothiazole dihydrochloride]: the “prevention of lethal septic shock” value in the data set on lethal septic shock was “prevents lethal septic shock”.
